Patent publication US9650360B2, “Anti-mycobacterial drugs against tuberculosis” (priority 2012, dated 2017)

System: Multidrug-Resistant Mycobacterium Tuberculosis (MDR-TB)
Assay: microbe, parasite or virus in culture
Assay type: cell-based
Conditions: read-out: minimum inhibitory concentration (MIC)

Work on `O=C(/C=C(\O)c1cc(Cc2c(F)cc(F)cc2F)cn(Cc2ccccc2F)c1=O)C(=O)N1CCN(c2cccc3ccccc23)CC1` yielded an MIC of less than 1 µg/mL.
